In patent US12544360B2, “Pharmaceutical composition for preventing or treating coronavirus disease-19” (priority 2020, dated 2026):

Assays:
[1] = system: SARS-CoV-2; experiment: microbe, parasite or virus in culture; assay type: cell-based; details: for antiviral activity: human lung cells (Calu-3)
[2] = system: SARS-CoV-2; experiment: microbe, parasite or virus in culture; assay type: cell-based; details: for IC50: Severe acute respiratory syndrome coronavirus 2, in Primates, Vero cells (monkey kidney cells) infected with SARS-CoV-2
[3] = Severe acute respiratory syndrome coronavirus 2, Calu-3 cells (human lung cells) infected with SARS-CoV-2

`Cc1cc(O)c2c(c1)C(=O)c1cc(O)cc(O)c1C2=O` [Emodin] was tested, and the antiviral activity [1] was “exhibited antiviral activity” and the antiviral activity ([2]; Vero cells) was “significant antiviral activities”.

In the case of `CCN1CCN(c2cc(-c3ccc(F)cc3)c3c(n2)CCCCCC3)CC1` [Blonanserin], the IC50 [1, 3] is reported as > 50 µM.

Work on `Cc1cccc(C)c1OCC(=O)N[C@@H](Cc1ccccc1)[C@@H](O)C[C@H](Cc1ccccc1)NC(=O)[C@H](C(C)C)N1CCCNC1=O` [lopinavir] yielded an IC50 [2] of 11 µM.

`Cc1cc(O)c2c(=O)c3c(O)cc(O)c4c5c(O)cc(O)c6c(=O)c7c(O)cc(C)c8c1c2c(c34)c(c78)c65` [Hypericin] was tested, and the IC50 ([1]; Severe acute respiratory syndrome coronavirus 2, Calu-3) was > 50 µM.

With `COc1ncc(-c2ccc3nccc(-c4ccnnc4)c3c2)cc1NS(=O)(=O)c1ccc(F)cc1F` [Omipalisib] the IC50 [1, 3] was 0.01 µM, the antiviral activity [1] was “exhibited antiviral activity” and the IC50 [2] was 0.49 µM.

With `CCN(CC)CCCC(C)Nc1ccnc2cc(Cl)ccc12` (stereo not drawn) [chloroquine] the IC50 [2] was 8.89 µM.
